The compounds below were run against GLP-1 Receptor (Homo sapiens, UniProt P43220) (assay: GLP-1R agonist cAMP stimulation assay (HEK293/GLP1R/CRE-LUC cells, Cisbio cAMP dynamic 2 kit)). Details: Table 3, HEK293/GLP1R/CRE-LUC cells, 30 min.
Type: cell-based
Summary of the method: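 cAMP was measured by HTRF (d2/cryptate, 1 h RT, 665 and 615 nm). Beforehand, compounds in half-log series were incubated 30 min at 37 °C with GLP-1R/CRE-Luc HEK293 cells (1000 per well) in IBMX (0.5 mM)-containing DPBS/BSA. Activity scaled between vehicle and maximal control.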

Sequence of GLP-1 Receptor (P43220 24-463, species assumed): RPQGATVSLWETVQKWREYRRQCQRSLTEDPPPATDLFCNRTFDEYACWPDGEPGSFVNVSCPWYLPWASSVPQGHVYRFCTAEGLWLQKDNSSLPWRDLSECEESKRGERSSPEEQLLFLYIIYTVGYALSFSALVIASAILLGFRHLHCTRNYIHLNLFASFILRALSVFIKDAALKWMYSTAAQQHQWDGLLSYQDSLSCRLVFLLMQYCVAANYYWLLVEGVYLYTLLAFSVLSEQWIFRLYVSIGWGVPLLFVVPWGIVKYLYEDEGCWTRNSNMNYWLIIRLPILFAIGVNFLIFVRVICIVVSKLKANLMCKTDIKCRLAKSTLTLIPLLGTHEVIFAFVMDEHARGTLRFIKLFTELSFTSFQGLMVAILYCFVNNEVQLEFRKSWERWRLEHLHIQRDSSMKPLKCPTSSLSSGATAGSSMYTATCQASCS

Row | EC50 | Compound
1 | 0.047 nM | CCS(=N)(=O)c1ccc(-n2ccn(-c3c4c(nn3-c3cc(C)c(F)c(C)c3)CCN(C(=O)c3cc5cc(C6CCOCC6)ccc5n3[C@@]3(c5noc(=O)[nH]5)C[C@@H]3C)[C@H]4C)c2=O)c(Cl)c1 (single isomer, unassigned) [Compound 136]
2 | 0.34 nM | Cc1cc(-n2nc3c(c2-n2ccn(-c4ccc5c(c4)CCS(C)(=O)=N5)c2=O)[C@H](C)N(C(=O)c2cc4cc([C@H]5CCOC(C)(C)C5)ccc4n2[C@@]2(c4noc(=O)[nH]4)C[C@@H]2C)CC3)cc(C)c1F (single isomer, unassigned) [Compound 228]
3 | 0.038 nM | Cc1cc(-n2nc3c(c2-n2ccn(-c4ccc5c(c4)CCCN=S5(=O)C4CC4)c2=O)[C@H](C)N(C(=O)c2cc4cc([C@H]5CCOC(C)(C)C5)ccc4n2[C@@]2(c4noc(=O)[nH]4)C[C@@H]2C)CC3)cc(C)c1F (single isomer, unassigned) [Compound 212]
4 | 0.062 nM | CCS(=N)(=O)c1ccc(-n2ccn(-c3c4c(nn3-c3cc(C)c(F)c(C)c3)CCN(C(=O)c3cc5cc(C6CCOCC6)ccc5n3[C@@]3(c5noc(=O)[nH]5)C[C@@H]3C)[C@H]4C)c2=O)c(F)c1 (single isomer, unassigned) [Compound 139]
5 | 0.15 nM | CCS(=N)(=O)c1ccc(-n2ccn(-c3c4c(nn3-c3cc(C)c(F)c(C)c3)CCN(C(=O)c3cc5cc(C6CCOCC6)ccc5n3[C@@]3(c5noc(=O)[nH]5)C[C@@H]3C)[C@H]4C)c2=O)c(Cl)c1 (single isomer, unassigned) [Compound 137]
6 | 0.077 nM | Cc1cc(-n2nc3c(c2-n2ccn(-c4ccc(C5CCS(=N)(=O)CC5)cc4)c2=O)[C@H](C)N(C(=O)c2cc4cc(C5CCOCC5)ccc4n2[C@@]2(c4noc(=O)[nH]4)C[C@@H]2C)CC3)cc(C)c1F (single isomer, unassigned) [Compound 182]
7 | 0.023 nM | Cc1cc(-n2nc3c(c2-n2ccn(-c4ccc5c(c4F)CCN=S5(=O)C4CC4)c2=O)[C@H](C)N(C(=O)c2cc4cc([C@H]5CCOC(C)(C)C5)ccc4n2[C@@]2(c4noc(=O)[nH]4)C[C@@H]2C)CC3)cc(C)c1F (single isomer, unassigned) [Compound 198]
8 | 0.193 nM | CN=S(=O)(c1ccc(-n2ccn(-c3c4c(nn3-c3cc(C)c(F)c(C)c3)CCN(C(=O)c3cc5cc([C@H]6CCOC(C)(C)C6)ccc5n3[C@@]3(c5noc(=O)[nH]5)C[C@@H]3C)[C@H]4C)c2=O)c(F)c1C(C)C)C1CC1 (single isomer, unassigned) [Compound 219]
9 | 0.67 nM | Cc1cc(-n2nc3c(c2-n2ccn(-c4ccc(S(C)(=N)=O)cc4)c2=O)[C@H](C)N(C(=O)c2cc4cc(N5CCOCC5)ccc4n2C2(c4noc(=O)[nH]4)CC2)CC3)cc(C)c1F (stereo partly shown) [Compound 106]
10 | 0.017 nM | Cc1cc(-n2nc3c(c2-n2ccn(-c4ccc5c(c4F)CN=S5(C)=O)c2=O)[C@H](C)N(C(=O)c2cc4cc([C@H]5CCOC(C)(C)C5)ccc4n2[C@@]2(c4noc(=O)[nH]4)C[C@@H]2C)CC3)cc(C)c1F (single isomer, unassigned) [Compound 188]
11 | 0.134 nM | CN=S(=O)(c1ccc(-n2ccn(-c3c4c(nn3-c3cc(C)c(F)c(C)c3)CCN(C(=O)c3cc5cc([C@H]6CCOC(C)(C)C6)ccc5n3[C@@]3(c5noc(=O)[nH]5)C[C@@H]3C)[C@H]4C)c2=O)c(F)c1C(C)C)C1CC1 (single isomer, unassigned) [Compound 220]
12 | 0.049 nM | Cc1cc(-n2nc3c(c2-n2ccn(-c4ccc(S(C)(=N)=O)cc4)c2=O)[C@H](C)N(C(=O)c2cc4cc(C5CCOCC5)ccc4n2[C@@]2(c4noc(=O)[nH]4)C[C@@H]2C)CC3)cc(C)c1F (single isomer, unassigned) [Compound 115]
13 | 0.12 nM | CCS(=N)(=O)c1ccc(-n2ccn(-c3c4c(nn3-c3ccc(F)c(C5CC5)c3)CCN(C(=O)c3cc5cc(C6CCOCC6)ccc5n3[C@@]3(c5noc(=O)[nH]5)C[C@@H]3C)[C@H]4C)c2=O)c(F)c1 (single isomer, unassigned) [Compound 167]
14 | 0.016 nM | Cc1cc(-n2nc3c(c2-n2ccn(-c4ccc5c(c4F)CCN=S5(C)=O)c2=O)[C@H](C)N(C(=O)c2cc4cc([C@H]5CCOC(C)(C)C5)ccc4n2[C@@]2(c4noc(=O)[nH]4)C[C@@H]2C)CC3)cc(C)c1F (single isomer, unassigned) [Compound 185]
15 | 0.047 nM | Cc1cc(-n2ccn(-c3c4c(nn3-c3cc(C)c(F)c(C)c3)CCN(C(=O)c3cc5cc([C@H]6CCOC(C)(C)C6)ccc5n3[C@@]3(c5noc(=O)[nH]5)C[C@@H]3C)[C@H]4C)c2=O)c(F)cc1S(=N)(=O)C1CC1 (single isomer, unassigned) [Compound 189]
16 | 0.05 nM | Cc1cc(-n2nc3c(c2-n2ccn(-c4ccc(S5(=O)=NCCC5)cc4)c2=O)[C@H](C)N(C(=O)c2cc4cc(C5CCOCC5)ccc4n2C2(c4nsc(=O)[nH]4)CC2)CC3)cc(C)c1F (single isomer, unassigned) [Compound 131]

Row | EC50 | Compound
17 | 0.067 nM | Cc1cc(-n2nc3c(c2-n2ccn(-c4ccc(CS(C)(=N)=O)cc4F)c2=O)[C@H](C)N(C(=O)c2cc4cc(C5CCOCC5)ccc4n2[C@@]2(c4noc(=O)[nH]4)C[C@@H]2C)CC3)cc(C)c1F (single isomer, unassigned) [Compound 174]
18 | 0.026 nM | Cc1cc(-n2ccn(-c3c4c(nn3-c3cc(C)c(F)c(C)c3)CCN(C(=O)c3cc5cc([C@H]6CCOC(C)(C)C6)ccc5n3[C@@]3(c5noc(=O)[nH]5)C[C@@H]3C)[C@H]4C)c2=O)c(F)cc1S(=N)(=O)C1CC1 (single isomer, unassigned) [Compound 190]
19 | 0.013 nM | Cc1cc(-n2nc3c(c2-n2ccn(-c4ccc5c(c4)CCN=S5(C)=O)c2=O)[C@H](C)N(C(=O)c2cc4cc(C5CCOCC5)ccc4n2[C@@]2(c4noc(=O)[nH]4)C[C@@H]2C)CC3)cc(C)c1F (stereo partly drawn) [Compound 108, 6-{3-[(4S)-2-(4-fluoro-3,5-dimethylphenyl)-5-({1-[(1S,2S)-2-methyl-1-(5-oxo-4H-1,2,4-oxadiazol-3-yl)cyclopropyl]-5-(3,4,5,6-tetrahydro-2H-pyran-4-yl)indol-2-yl}carbonyl)-4-methyl-4,5,6,7-tetrahydropyrazolo[4,3-c]pyridin-3-yl]-2-oxoimidazol-1-yl}-1-methyl-3,4-dihydro-1λ^6-benzo[2,1-e][1,2]thiazin-1-one]
20 | 0.012 nM | CC[C@H]1C[C@]1(c1noc(=O)[nH]1)n1c(C(=O)N2CCc3nn(-c4cc(C)c(F)c(C)c4)c(-n4ccn(-c5ccc(S(=N)(=O)CC)cc5F)c4=O)c3[C@@H]2C)cc2cc(C3CCOCC3)ccc21 (single isomer, unassigned) [Compound 173]
21 | 0.032 nM | CN=S(=O)(c1ccc(-n2ccn(-c3c4c(nn3-c3cc(C)c(Cl)c(C)c3)CCN(C(=O)c3cc5cc([C@H]6CCOC(C)(C)C6)ccc5n3[C@@]3(c5noc(=O)[nH]5)C[C@@H]3C)[C@H]4C)c2=O)c(F)c1)C1CC1 (single isomer, unassigned) [Compound 203]
22 | 0.067 nM | Cc1cc(-n2nc3c(c2-n2ccn(-c4ccc5c(c4)CCS5(=N)=O)c2=O)[C@H](C)N(C(=O)c2cc4cc(C5CCOCC5)ccc4n2[C@@]2(c4noc(=O)[nH]4)C[C@@H]2C)CC3)cc(C)c1F (stereo partly drawn) [Compound 101, 3-[(1S,2S)-1-(2-{[(4S)-3-[3-(1-azanylidene-l-oxo-2,3-dihydro-1λ^6-benzo[b]thiophen-5-yl)-2-oxoimidazol-1-yl]-2-(4-fluoro-3,5-dimethylphenyl)-4-methyl-4,5,6,7-tetrahydropyrazolo[4,3-c]pyridin-5-yl]carbonyl}-5-(3,4,5,6-tetrahydro-2H-pyran-4-yl)indol-1-yl)-2-methylcyclopropyl]-4H,5H-1,2,4-oxadiazol-5-one]
23 | 3.2 nM | CCS(=O)(=NC)c1ccc(-n2ccn(-c3c4c(nn3-c3cc(C)c(F)c(C)c3)CCN(C(=O)c3cc5cc(C6CCOCC6)ccc5n3C[C@@H]3CCO3)[C@H]4C)c2=O)cc1 (single isomer, unassigned) [Compound 162]
24 | 1.5 nM | Cc1nnc(C2(n3c(C(=O)N4CCc5nn(-c6cc(C)c(F)c(C)c6)c(-n6ccn(-c7ccc(S8(=O)=NCCC8)cc7)c6=O)c5[C@@H]4C)cc4cc(C5CCOCC5)ccc43)CC2)o1 (single isomer, unassigned) [Compound 156]
25 | 0.11 nM | CCN=S(=O)(c1ccc(-n2ccn(-c3c4c(nn3-c3cc(C)c(F)c(C)c3)CCN(C(=O)c3cc5cc([C@H]6CCOC(C)(C)C6)ccc5n3[C@@]3(c5noc(=O)[nH]5)C[C@@H]3C)[C@H]4C)c2=O)c(F)c1)C1CC1 (single isomer, unassigned) [Compound 208]
26 | 5.9 nM | Cc1nnc(Cn2c(C(=O)N3CCc4nn(-c5cc(C)c(F)c(C)c5)c(-n5ccn(-c6ccc(S7(=O)=NCCC7)cc6)c5=O)c4[C@@H]3C)cc3cc(C4CCOCC4)ncc32)o1 (single isomer, unassigned) [Compound 159]
27 | 0.035 nM | Cc1cc(-n2nc3c(c2-n2ccn(-c4ccc(S(C)(=O)=NC#N)cc4)c2=O)[C@H](C)N(C(=O)c2cc4cc(C5CCOCC5)ccc4n2[C@@]2(c4noc(=O)[nH]4)C[C@@H]2C)CC3)cc(C)c1F (single isomer, unassigned) [Compound 113]
28 | 0.025 nM | Cc1cc(-n2nc3c(c2-n2ccn(-c4ccc(CS(C)(=N)=O)cc4F)c2=O)[C@H](C)N(C(=O)c2cc4cc(C5CCOCC5)ccc4n2[C@@]2(c4noc(=O)[nH]4)C[C@@H]2C)CC3)cc(C)c1F (single isomer, unassigned) [Compound 175]
29 | 0.07 nM | CN=S1(=O)CCC(Oc2ccc(-n3ccn(-c4c5c(nn4-c4cc(C)c(F)c(C)c4)CCN(C(=O)c4cc6cc([C@H]7CCOC(C)(C)C7)ccc6n4[C@@]4(c6noc(=O)[nH]6)C[C@@H]4C)[C@H]5C)c3=O)cc2C2CC2)CC1 (stereo partly shown) [Compound 237]
30 | 0.028 nM | Cc1cc(-n2nc3c(c2-n2ccn(-c4ccc5c(c4)CS(C)(=O)=N5)c2=O)[C@H](C)N(C(=O)c2cc4cc(C5CCOCC5)ccc4n2[C@@]2(c4noc(=O)[nH]4)C[C@@H]2C)CC3)cc(C)c1F (stereo partly shown) [Compound 225]
31 | 0.028 nM | CN=S1(=O)CCC(Oc2ccc(-n3ccn(-c4c5c(nn4-c4cc(C)c(F)c(C)c4)CCN(C(=O)c4cc6cc(C7CCOCC7)ccc6n4[C@@]4(c6noc(=O)[nH]6)C[C@@H]4C)[C@H]5C)c3=O)c(F)c2C)CC1 (single isomer, unassigned) [Compound 233]

Source: patent US12291529B2, “Heterocyclic GLP-1 agonists” (Gasherbrum Bio, Inc., priority 2023, dated 2025)
